Measured values as given in patent US12655101B2, “Small molecules with antibacterial activity” (NEW MEXICO TECH UNIVERSITY RESEARCH PARK CORPORATION, priority 2021, dated 2026).
In brackets after ≈: the same amount, converted by molar mass. Read-outs that look alike come from different tables or passages of the source.

Key:
A. baumannii ATCC 1515 = assay: Membrane depolarization detected by DiOC2(3); format: cell-based; conditions: 1xMIC; 20 μM CCCP; 25 minutes
[1] = system: A. baumannii ATCC BAA-1797; assay: MIC on A. baumannii ATCC BAA-1797; format: cell-based
Protocol: A. baumannii: A. baumannii ATCC BAA-1797 was grown from a glycerol stock by placing a small volume of cells onto a MHA plate. The MHA plate was incubated overnight at 37° C. A single colony was used to inoculate MHB to obtain a bacterial broth suspension. The MHB broth suspension was grown at 37° C. on a rotary shaking incubator (100 rpm) for 12 hours. The bacterial cell concentration was adjusted to ˜5×10^5 CFU/mL in MHB or MHB+10%, 20% or 40% FBS using OD at 595 nm. 500 μL aliquots of the adjusted bacterial cell suspension were placed into borosilicate glass tubes. The cell suspensions were treated with a compound of interest, and the treatments were serially diluted two-fold. The culture tubes were incubated for 18 hours at 37° C. Efficacy was either assessed visually or by adding 10% v/v MTT (5 mg/mL stock) after the 18 hour incubation period. The cell suspensions were subsequently incubated for 10 minutes to allow the MTT reagent to carry out the colorimetric reaction. The OD was read at 595 nm.

MRSA ATCC BAA-44 = assay: MIC on MRSA ATCC BAA-44; format: cell-based, S. aureus; conditions: for MIC: Staphylococcus aureus
Protocol: MRSA BAA-44: MRSA ATCC BAA-44 was grown from a glycerol stock by placing a small volume of cells onto a Mueller-Hinton agar plate (MHA). The MHA plate was incubated overnight at 37° C. A single colony was used to inoculate Mueller-Hinton broth (MHB) to obtain a bacterial broth suspension. The MHB broth suspension was grown at 37° C. on a rotary shaking incubator (100 rpm) for 12 hours. The bacterial cell concentration was adjusted to ˜5×10^5 colony forming units per milliliter (CFU/mL) in MHB−/+10, 20, or 40% FBS using optical density (OD) at 595 nm. 500 μL aliquots of the adjusted bacterial cell suspension were placed into borosilicate glass tubes. The cell suspensions were treated with 100 μM compound of interest and serially diluted two-fold. The culture tubes were incubated for 18 hours at 37° C. Efficacy was either assessed visually or by adding 10% v/v MTT (5 mg/mL stock) after the 18 hour incubation period, where the cell suspensions were subsequently incubated for 10 minutes to allow the MTT reagent to carry out the colorimetric reaction.

S. aureus = assay: Evolution of resistance in S. aureus over 32 days; format: cell-based; conditions: for MIC: Staphylococcus aureus; for development of resistance (increase in MIC): 32 days of sub-inhibitory exposure
Description: Over a period of 32 days, S. aureus cells were exposed to sub-inhibitory concentrations of the indicated compound, norfloxacin, or oxacillin and sub-cultured at the newly emerged, sub-inhibitory concentration.

[2] = system: RecA-GFP fusion protein in E. coli MG1655; assay: Inhibition of norfloxacin-triggered RecA-GFP induction in E. coli MG1655; format: cell-based; conditions: for killing of E. coli: PME or norfloxacin 30 minutes, then compound, 3.5 hours; for SOS response (RecA-GFP induction): norfloxacin-triggered, sub-potent Polymixin E to facilitate entry
Protocol: An increase in DNA damage-induced RecA protein expression is required for identification and repair of DNA lesions. LexA-repressed transcription of a norfloxacin-triggered SOS response was measured by detecting an increase in RecA-GFP fusion protein fluorescence in an E. coli recombinant model. The compounds of the disclosure inhibited RecA-GFP induction and presumably, the concurrent SOS response. Inhibition of RecA-GFP expression correlated with an increase in cell death, most likely as a result of ALD activation. Sub-potent concentrations of Polymixin E were used to facilitate entry of the compounds into cells.
E. coli MG1655 was grown from a glycerol stock by placing a small volume of cells onto a MHA plate. The MHA plate was incubated overnight at 37° C. A single colony was subsequently used to inoculate MHB+10 μg/mL kanamycin to obtain a bacterial broth suspension. This was grown in at 37° C. on a rotary shaking incubator (100 rpm) for 12 hours. The bacterial cell concentration was adjusted to ˜5×10^5 colony forming units per milliliter (CFU/mL) in MHB using optical density at 595 nm. Treated cells with polymyxin E (PME) or norfloxacin (in μg/ml) at indicated concentrations for 30 minutes at 37° C. and then added a compound of the disclosure at indicated micromolar concentrations. Incubated for 3.5 hours at 37° C. Cell samples were read on the flow cytometer to detect (green fluorescent) RLU RecA expression and/or shutdown.
E. coli MG1655 was grown from a glycerol stock by placing a small volume of cells onto a MHA plate. The MHA plate was incubated overnight at 37° C. A single colony was subsequently used to inoculate MHB+10 μg/mL kanamycin to obtain a bacterial broth suspension. The MHB broth suspension was grown at 37° C. on a rotary shaking incubator (100 rpm) for 12 hours. The bacterial cell concentration was adjusted to ˜5×10^5 CFU/mL in MHB using OD at 595 nm.
Cells were treated with 0.03 μg/mL and 0.06 μg/mL norfloxacin for 30 minutes at 37° C. Then, 100 μM of the compounds were added. The cells were incubated for 3.5 hours at 37° C. 200 μL aliquots were removed and read by a flow cytometer to detect RecA production and/or shutdown. The cells were incubated for an additional 18 hours at 37° C. to assess overall toxicity.

[3] = 0% FBS, read-out: MIC (μM) in MDR A. baumannii ATCC 1797 0% FBS
[4] = Acinetobacter baumannii, ATCC 1797 / ATCC BAA-1797, 0% FBS, read-out: MIC (μM) in MDR A. baumannii ATCC 1797 0% FBS
[5] = Acinetobacter baumannii, ATCC 1797 / ATCC BAA-1797, read-out: MIC (μM) in MDR A. baumannii ATCC 1797 40% FBS, 40% FBS
[6] = no serum (note in the cell), read-out: MIC (μM) in MRSA BAA-44
[7] = 10% FBS, read-out: MIC (μM) in MRSA BAA-44 10% FBS
[8] = in 40% FBS (note in the cell), read-out: MIC (μM) in MRSA BAA-44
[9] = 0 h, read-out: Initial MIC Day 0

## N#CC(C#N)=NNc1cccc(Cl)c1 [CCCP, reference compound]
A. baumannii ATCC 1515
  cell membrane depolarization: depolarized the cell membrane

## Brc1ccc(N/N=C/c2c[nH]c3cccc(OCc4ccccc4)c23)cc1 [Compound 34, (E)-4-(benzyloxy)-3-((2-(4-bromophenyl)hydrazineylidene)methyl)-1H-indole]
[1]; [3]
  MIC: 3 µM (≈ 1.26 µg/mL)
[1]
  MIC (μM) in MDR A. baumannii ATCC 1797 40% FBS: 50 µM (≈ 21 µg/mL)
MRSA ATCC BAA-44; no serum (note in the cell)
  MIC (μM) in MRSA BAA-44: 25 (no serum) μM

## C(=N\NC1=NCCCN1)/c1c[nH]c2cccc(OCc3ccccc3)c12 [Compound 35, (E)-2-(2-((4-(benzyloxy)-1H-indol-3-yl)methylene)hydrazineyl)-3,4,5,6-tetrahydropyrimidin-1-ium 2,2,2-trifluoroacetate]
[1]; [4]
  MIC: > 100 µM
[1]; [5]
  MIC: > 100 µM
MRSA ATCC BAA-44; [6]
  MIC: 50 µM (≈ 17.4 µg/mL)

## C(=N\Nc1ncccn1)/c1c[nH]c2cccc(OCc3ccccc3)c12 [Compound 36, (E)-4-(benzyloxy)-3-((2-(pyrimidin-2-yl)hydrazineylidene)methyl)-1H-indole]
[1]; [4]
  MIC: > 100 µM
[1]; [5]
  MIC: > 100 µM
MRSA ATCC BAA-44; [6]
  MIC: > 100 µM

## FC(F)(F)c1ccc(N/N=C/c2c[nH]c3cccc(OCc4ccccc4)c23)cc1 [Compound 37, (E)-4-(benzyloxy)-3-((2-(4-(trifluoromethyl)phenyl) hydrazineylidene)methyl)-1H-indole]
[1]; [4]
  MIC: > 100 µM
[1]; [5]
  MIC: > 100 µM
MRSA ATCC BAA-44; [6]
  MIC: 12.5 µM (≈ 5.12 µg/mL)

## Nc1ccc(N/N=C/c2c[nH]c3cccc(OCc4ccccc4)c23)cc1 [Compound 38, (E)-4-(2-((4-(benzyloxy)-1H-indol-3-yl)methylene)hydrazineyl) benzenaminium chloride]
[1]; [4]
  MIC: > 100 µM
[1]; [5]
  MIC: > 100 µM
MRSA ATCC BAA-44; [6]
  MIC: > 100 µM

## CC(=O)O.Nc1ccc(N/N=C/c2c[nH]c3cccc(OCc4ccccc4)c23)cc1 [Compound 39, (E)-1-(4-aminophenyl)-2-((4-(benzyloxy)-1H-indol-3-yl)methylene)hydrazin-1-ium acetate]
[1]; [3]
  MIC: >100 µM
[1]
  MIC (μM) in MDR A. baumannii ATCC 1797 40% FBS: >100 µM
MRSA ATCC BAA-44; no serum (note in the cell)
  MIC (μM) in MRSA BAA-44: 50 (no serum) μM

## C(=N\Nc1ncccn1)/c1c[nH]c2cccc(OCc3ccccc3)c12.O=C(O)C(F)(F)F [Compound 40, (E)-2-((4-(benzyloxy)-1H-indol-3-yl)methylene)-1-(pyrimidin-2-yl)hydrazin-1-ium 2,2,2-trifluoroacetate]
[1]; [3]
  MIC: >100 µM
[1]
  MIC (μM) in MDR A. baumannii ATCC 1797 40% FBS: >100 µM
MRSA ATCC BAA-44; [7]
  MIC: > 100 µM

## NCCCC(=O)Oc1cccc2[nH]cc(/C=N/Nc3ccc(F)cc3)c12 [Compound 41, (E)-3-((2-(4-fluorophenyl)hydrazineylidene)methyl)-1H-indol-4-yl 4-aminobutanoate]
[1]; [4]
  MIC: 12.5 µM (≈ 4.43 µg/mL)
[1]; [5]
  MIC: > 100 µM
MRSA ATCC BAA-44; no serum (note in the cell)
  MIC (μM) in MRSA BAA-44: 100 no serum μM

## Cl.NCCCC(=O)Oc1cccc2[nH]cc(/C=N/Nc3ccc(F)cc3)c12 [Compound 42, (E)-4-((3-((2-(4-fluorophenyl)hydrazineylidene)methyl)-1H-indol-4-yl)oxy)-4-oxobutan-1-aminium chloride]
[1]; [3]
  MIC: <25 µM
[1]
  MIC (μM) in MDR A. baumannii ATCC 1797 40% FBS: >100 µM
MRSA ATCC BAA-44; in FBS (note in the cell, percentage not given), read-out: MIC (μM) in MRSA BAA-44
  MIC: 100 µM
MRSA ATCC BAA-44; no serum (note in the cell)
  MIC (μM) in MRSA BAA-44: <25 in no μM

## Brc1ccc2c(N/N=C/c3c[nH]c4cccc(OCc5ccccc5)c34)ccnc2c1 [Compound 43, (E)-4-(2-((4-(benzyloxy)-1H-indol-3-yl)methylene)hydrazineyl)-7-bromoquinoline]
[1]; [4]
  MIC: 6 µM (≈ 2.83 µg/mL)
[1]; [5]
  MIC: > 100 µM
MRSA ATCC BAA-44; 18 h, read-out: MIC in the presence of 40% FBS, MRSA ATCC BAA-44, 40% FBS
  MIC: > 100 µM
MRSA ATCC BAA-44; MRSA ATCC BAA-44, absence of serum, read-out: MIC in the absence of serum
  MIC: 6 µM (≈ 2.83 µg/mL)
MRSA ATCC BAA-44; [8]
  MIC: > 100 µM
MRSA ATCC BAA-44; [6]
  MIC: 6 µM (≈ 2.83 µg/mL)

## Cn1cc(/C=N/Nc2ccc(F)cc2)c2c(OCc3ccccc3)cccc21 [Compound 44, (E)-4-(benzyloxy)-3-((2-(4-fluorophenyl)hydrazineylidene)methyl)-1-methyl-1H-indole]
[1]; [4]
  MIC: < 100 µM
MRSA ATCC BAA-44; [7]
  MIC: < 100 µM

## Cn1cc(/C=N/Nc2ccc(Br)cc2)c2c(OCc3ccccc3)cccc21 [Compound 45, (E)-4-(benzyloxy)-3-((2-(4-bromophenyl)hydrazineylidene)methyl)-1-methyl-1H-indole]
[1]; [4]
  MIC: 25 µM (≈ 10.9 µg/mL)
[1]; [5]
  MIC: 50 µM (≈ 21.7 µg/mL)
MRSA ATCC BAA-44; [8]
  MIC: > 100 µM
MRSA ATCC BAA-44; [6]
  MIC: 25 µM (≈ 10.9 µg/mL)

## Brc1ccc(/N=N/c2c[nH]c3ccccc23)cc1 [Compound 47, (E)-3-((4-bromophenyl)diazenyl)-1H-indole]
S. aureus; [9]
  MIC: 4 µM
S. aureus; read-out: Final MIC Day 32
  MIC: 4 µM
[2]
  killing of E. coli: killed E. coli
  SOS response (RecA-GFP induction): inhibited the SOS response

## Clc1ccc(/N=N/c2c[nH]c3ccccc23)cc1 [Compound 48, (E)-3-((4-chlorophenyl)diazenyl)-1H-indole]
S. aureus; [9]
  MIC: 8 µM
S. aureus; read-out: Final MIC Day 32
  MIC: 8 µM

## Clc1ccc(Oc2c(-c3ccc(Cl)cc3)[nH]c3ccccc23)cc1 [Compound 49, 3-(4-chlorophenoxy)-2-(4-chlorophenyl)-1H-indole]
S. aureus; [9]
  MIC: 2 µM
S. aureus; read-out: Final MIC Day 32
  MIC: 1 µM
[2]
  killing of E. coli: killed E. coli
  SOS response (RecA-GFP induction): inhibited the SOS response

## Clc1ccc(Oc2c(-c3ccc(Cl)cc3)[nH]c3ccc(Cl)cc23)cc1 [Compound 50, 5-chloro-3-(4-chlorophenoxy)-2-(4-chlorophenyl)-1H-indole]
S. aureus; [9]
  MIC: 0.25 to 0.5 µM
S. aureus; read-out: Final MIC Day 32
  MIC: > 32 µM

## CCn1cc(C(=O)O)c(=O)c2cc(F)c(N3CCNCC3)cc21 [Norfloxacin, reference compound]
S. aureus
  development of resistance (increase in MIC): Dramatic resistance
S. aureus; [9]
  MIC: 2 µg/mL
S. aureus; read-out: Final MIC Day 32
  MIC: > 100 µg/mL

## Cc1onc(-c2ccccc2)c1C(=O)N[C@@H]1C(=O)N2[C@@H]1SC(C)(C)[C@@H]2C(=O)O [Oxacillin, reference compound]
S. aureus
  development of resistance (increase in MIC): Dramatic resistance
S. aureus; [9]
  MIC: 0.25 µg/mL
S. aureus; read-out: Final MIC Day 32
  MIC: > 200 µg/mL
